Measured values from publication PMC7087482 (Journal of medicinal chemistry, 2020).
Entries after “also recorded” stand apart in the source; their conditions may differ.

How the values were obtained:
[1] = tested on: CYP3A4; experiment: Western blot of CYP3A4 protein level after compound treatment; conditions: 1 μM compound, 24 h treatment
[2] = molecular target: T1, CYP3A4 (Homo sapiens, UniProt P08684); experiment: CW X-band EPR spectroscopy of CYP3A4-ligand complexes; conditions: CYP 200 μM, compound 400 μM, 10 K
[3] = tested on: CYP1A2, 2B6, 2C8, 2C9, 2C19, and 2D6; experiment: Cytochrome P450 inhibition panel in pooled human liver microsomes; assay type: biochemical; conditions: 1.8 μM clobetasol, own probe substrate per CYP
[4] = molecular target: T2, CYP3A5 (Homo sapiens, UniProt P20815); experiment: CW X-band EPR spectroscopy of CYP3A5-ligand complexes; conditions: CYP 200 μM, compound 400 μM, 10 K
[5] = molecular target: T1, CYP3A4; experiment: P450-Glo luminescence biochemical inhibition assay; conditions: compound at 1.8 μM, DMSO 0.1%
[6] = molecular target: T1, CYP3A4; experiment: Cytochrome P450 inhibition panel in pooled human liver microsomes; assay type: biochemical; conditions: 1.8 μM clobetasol
[7] = molecular target: T2, CYP3A5; experiment: CYP3A5 activity in AsPC-1 cells by 1-hydroxymidazolam formation; assay type: cell-based; conditions: 5 μM midazolam, 24 h
[8] = molecular target: T2, CYP3A5; experiment: UV-visible absorbance titration with purified recombinant CYP3A5; conditions: UV-visible Soret band shift

## CCC(=O)O[C@]1(C(=O)CCl)[C@@H](C)C[C@H]2[C@@H]3CCC4=CC(=O)C=C[C@]4(C)[C@@]3(F)[C@@H](O)C[C@@]21C [clobetasol, Clobetasol propionate]
[1]
  Effect on CYP3A4 protein level (Western blot): did not increase the protein level of CYP3A4
[2]
  Heme iron spin state of CYP3A4 complex (EPR): no new HS formation
[3]
  Inhibition of other major human CYPs: little or no inhibition; also recorded: no significant inhibition
[4]
  Heme iron spin state of CYP3A5 complex (EPR): five-coordinate HS ferric heme iron state
[5]
  Inhibition of CYP3A4: no inhibition
[6]
  Inhibition of CYP3A4-mediated catalysis, substrate midazolam: uninhibited
  Inhibition of CYP3A4-mediated catalysis, substrate testosterone: uninhibited
[7]; CYP3A5 overexpressed (+Dox) in WT or 3A5-/- AsPC-1 cells
  Inhibition of CYP3A5 activity (1OH-MDZ formation): inhibited the CYP3A5 activity
[7]; parental AsPC-1 (WT) cells, dose-response
  Inhibition of CYP3A5 activity (1OH-MDZ formation) compared with ketoconazole: slightly more potent

## CC(=O)N1CCN(c2ccc(OCC3COC(Cn4ccnc4)(c4ccc(Cl)cc4Cl)O3)cc2)CC1 (stereo not shown) [ketoconazole, Ketoconazole]
[1]
  Effect on CYP3A4 protein level (Western blot): increased CYP3A4 protein expression

## Cc1ncc2n1-c1ccc(Cl)cc1C(c1ccccc1F)=NC2 [midazolam, Midazolam]
[2]
  Heme iron spin state of CYP3A4 complex (EPR): an HS signal was induced
[8]
  Spectral shift type on titration with CYP3A5: typical type I CYP spectral shift
[4]
  Heme iron spin state of CYP3A5 complex (EPR): five-coordinate HS ferric heme iron state
